Assay results published in patent US8426433B2, priority 2007, dated 2013).
Like-named read-outs stand apart in the source and are kept apart here.

Key:
Acute toxicity, LD50 = conditions: mouse, in vivo, mice
[1] = test system: endogenous thrombin potential in normal donor plasma (PPP); assay: Thrombin generation test (endogenous thrombin potential) in normal donor plasma; format: biochemical; conditions: read-out: IC50 (50% reduction in endogenous thrombin potential)
From the text: This method was described in detail in many papers (Hemker H C, Giesen P L, Ramjee M, Wagenvoord R, Beguin S. The thrombogram: monitoring thrombin generation in platelet-rich plasma. Thromb. Haemost., 2000; 83(4): 589-591; Hemker H C, AlDieri R, Beguin S. Thrombin generation assays: accruing clinical relevance. Curr. Opin. Hematol., 2004, 11(3):170-175; Hemker H C, Giesen P, AlDieri R, Regnault V, de Smed E, Wagenvoord R, Lecompte T, Beguin S. The calibrated automated thrombogram (CAT): a universal routine test for hyper- and hypocoagulability. Pathophysiol. Haemost. Thromb., 2002, 32(5-6):249-253). The test is used to measure the kinetics and total quantity of active thrombin generated in a plasma sample over a specified time at a standard clotting activation level in the sample. These applicants' method is suitable for measuring thrombin concentration using a slow-action fluorogenic substrate (BOC-Ile-Gly-Arg-AMC), which gives a highly fluorescent product, 7-amino-4-methylcoumarin (AMC), when broken d own by thrombin. The use of a fluorogenic, rather than chromogenic, substrate is dictated by the fact that the fluorescence level in the sample is virtually unaffected by the solid fibrin clot formed in the metering cell, but this is a qualification that restricts the application of a chromogenic substrate (Hemker H C, Giesen P, AlDieri R, Regnault V, de Smed E, Wagenvoord R, Lecompte T, Beguin S. The calibrated automated thrombogram (CAT): a universal routine test for hyper- and hypocoagulability. Pathophysiol. Haemost. Thromb., 2002, 32(5-6):249-253). On the other hand, it is common knowledge that the bulk of thrombin (about 95%) in the sample is generated after the first clot has already formed (Hemker H C, AlDieri R, Beguin S. Thrombin generation assays: accruing clinical relevance. Curr. Opin. Hematol., 2004, 11(3):170-175).
The kinetics of thrombin generation and ultimately loss in plasma after clotting activation is shown in FIG. 1, which illustrates the relationship between concentration of active thrombin in a plasma sample and time. The area under the thrombin generation time curve (in this invention, from 0 to 50 minutes of incubation) is called endogenous thrombin potential (ETP). The curve is further characterized by tmax, the time when thrombin in the sample reaches maximum concentration, Amax, the maximum thrombin concentration in the system, and tlag, the time before clotting commencement, which is conventionally the time when thrombin reaches a concentration of 5 nM.
Obviously, important clotting information is contained in the shape of thrombin concentration to time curves, as well as the integral ETP level. In particular, against the background of low factor and clotting inhibitor concentration, thrombin concentration maximums can be lower and also broader, although the total ETP might not change at all. The presence of additional thrombin inhibitors in plasma must reduce ETP and maximum attainable thrombin concentration, and increase the clotting lag and the time required for thrombin to achieve maximum concentration.
Measurements were taken as follows: 90 microliters of normal donor plasma (PPP), 0 to 20 microliters of the test substance solution, and 20 to 0 microliters of buffering solution (20 mM of HEPES, 140 mM of NaCal, pH 7.5) were deposited in the holes of a 96 hole board so that the total volume of added substance and buffer is always 20 microliters. Whereupon 20 microliters of a fluorogenic substrate solution (at 5 mM initial concentration) was added to each of the board holes, and plasma was heated for 3 to 5 minutes at 37° C. Next, 25 microliters of a clotting activator solution was added simultaneously (using a multichannel pipette) to all the holes. A thromboplastin solution prepared from a standard thromboplastin reagent diluted to 1/250th of its original concentration by the same buffer further containing 80 mM of CaCl2 to measure the prothrombin time (PT) (RENAM, Russia) was used as activator. […]

[2] = Argatroban after clinical testing; cited from earlier work
[3] = test system: endogenous thrombin potential in diluted donor platelet-free plasma; assay: ETP in plasma diluted with NaCl 0.9% plasma-substituting solution containing inhibitor; format: biochemical; conditions: 0.25-0.5 mcM in NaCl 0.9% solution; plasma diluted at a ratio of 1.5 to 4, FIG. 12
Procedure: Donor blood prepared on a 3.8% sodium citrate at a 9:1 ratio of blood to citrate (20 ml) was centrifuged for 15 minutes at 1,300 g. Some of the platelet-poor plasma (PPP) was centrifuged for another 10 minutes at 10,000 g to obtain a platelet-free plasma (PFP). The PFP thus produced was then used for measuring the endogenous thrombin potential.
PFP was diluted at a ratio of 1.5, 2, 3 and 4 with either transfusion-grade physiological saline (NaCl 0.9%) or with the same solution containing additionally a thrombin inhibitor HC-025s-IOC (at concentrations of 0.25, 0.5 or 1 mcM). For constant concentration of Ca^+2 to be maintained through the tests after recalcification, sodium citrate concentration was maintained constant in all plasma dilutions to be identical to the concentration in initial undiluted plasma, for which purpose the initial plasma-substituting solutions used to dilute the plasma were first mixed with 3.8% sodium citrate similarly with initial blood at a 9:1 solution to citrate ratio.
The plasma sample used in the above-described ETP measurement method was always diluted at a 1.5 ratio throughout. An opportunity must be provided to measure ETP in undiluted plasma in experiments to dilute plasmas with PSS. […] Endogenous thrombin potential was measured for each of the diluted plasmas in the presence of different concentrations of HC-025s-IOC.

[4] = test system: clot growth in platelet-free plasma; assay: Clot growth rate in space (light scattering) in platelet-free plasma; format: biochemical; conditions: 1 mcM of the compound in normal plasma versus plasma control, FIG. 9-11
From the text: The clot growth rate in space describes the dynamics of clotting, which is a process that develops over time and across space. This method measures light scattering to determine the size of the clot at different periods of time once clotting has begun. Clotting is activated in the system by an activator precisely localized in space without stirring. The activator was alternatively either a simple glass plate having a ground edge to cause contact activation on the internal path or fibroblast-coated polyethylene terephthalate films provided on the surface with a tissue factor to activate clotting on the external path. […]
Light scattering profiles corresponding to different time moments from the start of the experiment were obtained by processing the series of recorded images. […] The clot size in each frame was determined as the distance from the activator to the clot edge assumed to be the point where light scattering was half the maximum value. […]
The last output processing stage was calculating the clot growth rate on the basis of the light scattering profiles obtained. The clot size was assessed at each point of time as the distance of a respective light scattering profile from the activator (at half-point of the maximum profile height). […] The quasi-stationary growth rate of the clot was calculated from the inclination angle of the linear portion of the curve.

SMILES	IC50 [1] [µM]	further results
Cc1cc(OCCCn2ccsc2=N)cc(OS(=O)(=O)c2ccccc2)c1	24.8	LD50 (Acute toxicity, LD50; 0.9% NaCl): > 199 mg/kg
CC1CNc2c(cccc2S(=O)(=O)N[C@@H](CCCNC(=N)N)C(=O)N2CC[C@@H](C)C[C@@H]2C(=O)O)C1 (stereo partly drawn) [Argatroban]	–	LD50 [2]: 475 mg/kg
Cc1cc(OCCC[n+]2ccc(N)cc2)cc(OS(=O)(=O)c2ccccc2)c1 [HC-016s-IOC, 4-amino-1-(3-(3-methyl-5-(benzenesulfonyloxy)phenoxy)propyl)-pyridinium iodide]	~240	–
Cc1cc(OCCCSC(=N)N)cc(OS(=O)(=O)c2ccccc2)c1.I [HC-018s-IOC, 3-(3-methyl-5-(benzenesulfonyloxy)phenoxy)propyl-isothiouronium iodide]	–	LD50 (Acute toxicity, LD50; 0.9% NaCl + cremophor 20%): < 441 mg/kg
Cc1cc(OCC[n+]2ccc(N)cc2)cc(OS(=O)(=O)c2ccccc2)c1 [HC-019s-IOC, 4-amino-1-(2-(3-methyl-5-(benzenesulfonyloxy)phenoxy)ethyl)-pyridinium iodide]	0.25	LD50 (Acute toxicity, LD50; 0.9% NaCl + cremophor 20%): > 278 mg/kg
Cc1cc(OCCSC(=N)N)cc(OS(=O)(=O)c2ccccc2)c1 [HC-020s-IOC, 2-(3-methyl-5-(benzenesulfonyloxy)phenoxy)ethyl-isothiouronium iodide]	–	LD50 (Acute toxicity, LD50; 0.9% NaCl + cremophor 20%): > 1110 mg/kg
Cc1cc(OCCC[n+]2ccc(N)cc2)cc(OS(=O)(=O)c2ccccc2Cl)c1 [HC-023s-IOC]	40	–
Cc1cc(OCC[n+]2ccc(N)cc2)cc(OS(=O)(=O)c2ccccc2Cl)c1.[I-] [HC-025s-IOC, 4-amino-1-(2-(3-methyl-5-(2-chlorobenzenesulfonyloxy)phenoxy)ethyl)-pyridinium iodide]	0.26	ETP readings for different plasma dilutions [3]: closest thing to normal; Spatial clot growth dynamics (clot size versus time) [4]: inhibits clotting
CNc1ccc(S(=O)(=O)N(C)c2ccccc2)cc1NC(=O)CC[n+]1ccc(N)cc1.[Cl-] [HC_028s_IOC]	~9	LD50 (Acute toxicity, LD50; 0.9% NaCl + cremophor 20%): 257 ± 31 mg/kg
Cc1cc(OCCC[n+]2ccc(N)cc2)cc(OS(=O)(=O)c2ccccc2F)c1 [HC_029s_IOC, 4-amino-1-(3-(3-methyl-5-(2-fluorobenzenesulfonyloxy)phenoxy)propyl)-pyridinium iodide]	27	–
Cc1cc(OCCC[n+]2ccsc2N)cc(OS(=O)(=O)c2ccccc2F)c1 [HC_030s_IOC]	~8.6	–
Cc1cc(OCCCSC(=N)N)cc(OS(=O)(=O)c2ccccc2F)c1 [HC_031s_IOC]	1.24	–
C/N=C(/N)SCCCOc1cc(C)cc(OS(=O)(=O)c2ccccc2Cl)c1 [HC_032s_IOC]	25.2	–
C/N=C(/N)CSCCCOc1cc(C)cc(OS(=O)(=O)c2ccccc2Cl)c1 [HC_033s_IOC]	0.527	–
Cc1cc(OCC[n+]2ccc(N)cc2)cc(OS(=O)(=O)c2ccccc2S(C)(=O)=O)c1 [HC_036s_IOC]	0.158	–
Cc1cc(OCC[n+]2ccc(N)cc2)cc(OS(=O)(=O)c2ccccc2F)c1 [HC_037s_IOC]	~0.1	–
Cc1ccc(S(=O)(=O)Oc2cc(C)cc(OCC[n+]3ccc(N)cc3)c2)cc1 [HC_038s_IOC]	~4	–
Cc1cc(OCC[n+]2ccc(N)cc2)cc(OS(=O)(=O)c2ccc(Cl)cc2)c1 [HC_039s_IOC]	0.15	–
Cc1cc(OCCSC(=N)N)cc(OS(=O)(=O)c2ccccc2S(C)(=O)=O)c1 [HC_040s_IOC]	0.8	–
Nc1cc[n+](CCOc2cccc(NS(=O)(=O)c3ccccc3)c2)cc1 [HC_041s_IOC]	1.6	–
Cc1cc(OCC[n+]2ccsc2N)cc(OS(=O)(=O)c2ccccc2Cl)c1 [HC_045s_IOC]	16	–
Cc1cc(OCC[n+]2ccc(N)nc2)cc(OS(=O)(=O)c2ccccc2)c1 [HC_047s_IOC]	2.5	–
